Counter-ions that a name gives are not always drawn. Square brackets hold non-standard residues; d marks the D form. Peptide text beside a SMILES is read from it. pGlu = O=C1CC[C@@H](C(=O)O)N1
Legend:
[1] = test system: Emperor dragonfly, Anax imperator; details: low concentrations of the synthetic peptide injected into the Emperor dragonfly; cited from earlier work
Long Evans rats = test: Active Allothetic Place Avoidance test (AAPA), MK-801 model; type: in vivo; details: for MK-801 (0.15 mg/kg) induced cognitive memory impairment effects: peptide 2 mg/kg administered subchronically + MK-801 0.15 mg/kg, summary statement; for reversal of MK-801 increased locomotion (total distance (m) moved) / reversal of MK-801 decreased maximum time of avoidance (s) / reversal of MK-801 increased number of entries to the shock sector / reversal of MK-801 increased number of shocks: peptide 2 mg/kg i.p. + MK-801 0.15 mg/kg i.p., compared to MK-801 alone; for reversal of MK-801 increased locomotion (total distance (m) moved): 4 days (subchronically)
Procedure: 3-4 month-old male rats of the Long Evans strain were used for the Active Allothetic Place Avoidance test and were obtained from the accredited breeding colony of the Institute of Physiology, Academy of Science, Prague. Rats were acclimatised for 7-10 days prior to testing, during which they were weighed twice and handled four times. Rats were housed in pairs in transparent plastic cages (30×30×40 cm) in an air-conditioned animal room with a constant temperature of 21 °C and with 12/12 light/dark cycle (lights on at 7:00). All animals received food and water ad libitum. All experiments respected the Guidelines of the European Union (86/609/EU) and the National Committee for the Care and Use of Laboratory Animals (Czech Republic) and were approved by the committee under the number: MEYSCR-27527/2012-31.
In the Active Allothetic Place Avoidance test, Long Evans rats were treated with Ani-AKH (1 and 2 mg/kg) (n=8), Lia-AKH (1 and 2 mg/kg) (n=8), Pht-HrTH (1 and 2 mg/kg) (n=8), MK-801 (0.15 mg/kg) (n=8), Ani-AKH (2 mg/kg)+MK-801 (0.15 mg/kg) (n=8), Lia-AKH (2 mg/kg)+MK-801 (0.15 mg/kg) (n=8), Pht-HrTH (2 mg/kg)+MK-801 (0.15 mg/kg) (n=8) or vehicle (control group=saline with 15% DMSO) (n= 8) for 4 days (subchronically). Ani-AKH, Lia-AKH and Pht-HrTH were administered intraperitoneally (i.p.) 60 min. before the Active Allothetic Place Avoidance test while MK-801 was administered (i.p.) 40 min. before the test in a volume of 2ml/kg body weight. Separate group of animals were used in each test. The doses of the drugs were chosen according to the previous studies (Mutlu et al. 2016).
(+)-MK-801 maleate ((5S,10R)-(+)-5-methyl-10,11-dihydro-5H-dibenzo(a, d)-cyclo-hepten-5,10-imine maleate) was obtained from Tocris Bioscience, United Kingdom. Anax imperator AKH (Ani-AKH), Libellula auripennis AKH (Lia-AKH) and Phormia-Terra hypertrehalosemic hormone (Pht-HrTH) were purchased from TRC (Toronto/Canada). MK-801 was dissolved in saline while AKH was dissolved in saline mixed with 15% DMSO. Saline with 15% DMSO was used as control group.
The Active Allothetic Place Avoidance Test is a spatial memory test that can determine the ability of animals to organize their behavior efficiently in both normal and pathological conditions. Successful performance in the test requires the rat to solve a conflict between two discordant subsets of spatial stimuli (extramaze and intramaze cues). It is believed that successful performance in the Active Allothetic Place Avoidance Test, where the rat has to differentiate between relevant and irrelevant stimuli, depends on the mode of information processing disturbed in schizophrenic patients (Bubenikova-Valesova et al., 2008b). The Active Allothetic Place Avoidance arena was described in detail in previous papers (Cimadevilla et al., 2001). Briefly, it consisted of a smooth metallic circular arena (82 cm in diameter), enclosed by a 30 cm high transparent Plexiglas wall. The arena was elevated 1 m above the floor of 4×5 m experimental room containing an abundance of extramaze landmarks. The arena together with the wall was rotated (1 rpm) by an electric motor placed underneath the arena disc. At the beginning of each training session, a rat was placed in the arena at a location opposite an imperceptible 60° to-be- avoided sector (shock sector), which was defined by the computer- based tracking system (iTrack, Biosignal Group, USA), located in an adjacent room. The arena rotation started immediately after placement of the rat. The location of the shock sector could be determined solely by its spatial relation to the distal orienting cues located in the room. Rats were wearing a light latex harness, to which an infrared light-emitting diode (LED) was attached between the rat's shoulders. Whenever the rat entered the to-be-avoided sector for more than 500 ms (millisecond), the tracking system delivered a mild, constant-current shock (50 Hz, 0.5 s, 0.4-0.7 mA) and counted an entrance. […]

[2] = MK-801 0.15 mg/kg i.p. alone, 4 days, compared to control

CC(C)[C@H](NC(=O)[C@@H]1CCC(=O)N1)C(=O)N[C@@H](CC(N)=O)C(=O)N[C@@H](Cc1ccccc1)C(=O)N[C@@H](CO)C(=O)N1CCC[C@H]1C(=O)N[C@@H](CO)C(=O)N[C@@H](Cc1c[nH]c2ccccc12)C(N)=O [Ani-AKH, 5-oxo-L-prolyl-L-valyl-L-asparaginyl-L-phenylalanyl-L-seryl-L-prolyl-L-seryl-L-Tryptophanamide] ([pGlu]VNFSPSW-NH2)
haemolymph lipid concentration [1]: increased the haemolymph lipid concentration | MK-801 (0.15 mg/kg) induced cognitive memory impairment effects (Long Evans rats): reverse | reversal of MK-801 increased locomotion (total distance (m) moved) (Long Evans rats): significantly reversed | reversal of MK-801 decreased maximum time of avoidance (s) (Long Evans rats; 4 days): significantly reversed this effect | reversal of MK-801 increased number of entries to the shock sector (Long Evans rats; 4 days): significantly reversed this effect | reversal of MK-801 increased number of shocks (Long Evans rats; 4 days): significantly reversed this effect

C[C@]12N[C@H](Cc3ccccc31)c1ccccc12 [MK-801, (5S,10R)-(+)-5-methyl-10,11-dihydro-5H-dibenzo(a, d)-cyclo-hepten-5,10-imine maleate]
locomotion (total distance (m) moved) (Long Evans rats; [2]): significantly increased locomotion | maximum time of avoidance (s) (Long Evans rats; [2]): significantly decreased maximum time of avoidance | number of entries to the shock sector (Long Evans rats; [2]): significantly increased number of entries | number of shocks (Long Evans rats; [2]): significantly increased number of shocks

CC(C)C[C@H](NC(=O)[C@@H]1CCC(=O)N1)C(=O)N[C@H](C(=O)N[C@@H](Cc1ccccc1)C(=O)N[C@@H](CO)C(=O)N1CCC[C@H]1C(=O)N[C@@H](CC(=O)O)C(=O)N[C@@H](Cc1c[nH]c2ccccc12)C(N)=O)[C@@H](C)O [Pht-HrTH, 5-oxo-L-prolyl-L-leucyl-L-threonyl-L-phenylalanyl-L-seryl-L-prolyl-L-alfa-aspartyl-L-Tryptophanamide] ([pGlu]LTFSPDW-NH2)
MK-801 (0.15 mg/kg) induced cognitive memory impairment effects (Long Evans rats): reverse | reversal of MK-801 increased locomotion (total distance (m) moved) (Long Evans rats): no reversing effect | reversal of MK-801 decreased maximum time of avoidance (s) (Long Evans rats; 4 days): significantly reversed this effect | reversal of MK-801 increased number of entries to the shock sector (Long Evans rats; 4 days): significantly reversed this effect | reversal of MK-801 increased number of shocks (Long Evans rats; 4 days): significantly reversed this effect

CC(C)[C@H](NC(=O)[C@@H]1CCC(=O)N1)C(=O)N[C@@H](CC(N)=O)C(=O)N[C@@H](Cc1ccccc1)C(=O)N[C@H](C(=O)N1CCC[C@H]1C(=O)N[C@@H](CO)C(=O)N[C@@H](Cc1c[nH]c2ccccc12)C(N)=O)[C@@H](C)O [Lia-AKH, 5-oxo-L-prolyl-L-valyl-L-asparaginyl-L-phenylalanyl-L-threonyl-L-prolyl-L-seryl-L-Tryptophanamide] ([pGlu]VNFTPSW-NH2)
MK-801 (0.15 mg/kg) induced cognitive memory impairment effects (Long Evans rats): reverse | reversal of MK-801 increased locomotion (total distance (m) moved) (Long Evans rats): partial effect | reversal of MK-801 decreased maximum time of avoidance (s) (Long Evans rats; 4 days): significantly reversed this effect | reversal of MK-801 increased number of entries to the shock sector (Long Evans rats; 4 days): significantly reversed this effect | reversal of MK-801 increased number of shocks (Long Evans rats; 4 days): significantly reversed this effect
